According to patent US5698546A, “Cyclic polyamines” (Johnson Matthey Public Limted Company, priority 1994, dated 1997):
Structures can show the parent of a compound that is named as a salt. Where two headings read alike, the source gives them in different places.

How the values were obtained:
[1] = cytotoxicity in MT-4 cells, MTT method; conditions: human
[2] = tested on: HIV-1 (HTLV-IIIB); test: microbe, parasite or virus in culture; format: cell-based
[3] = octanol/buffer partition coefficient; format: physicochemical; conditions: for logD: octanol/buffer
From the text: The compounds were additionally studied to determine their partition coefficients as between octanol and water, in standard tests at various pH values. A partition coefficient greater than unity at pH 7-9 is generally considered to be a good indication that the compound will be absorbed through the upper gastrointestinal tract when dosed orally.

[4] = tested on: HIV-2 (LAV-2 ROD); test: MT-4 cells challenged with HIV-2, viability by MTT method (antiviral activity); format: cell-based, Human Immunodeficiency Virus; conditions: for IC50: Human immunodeficiency virus 2, MT4, 120 h
[5] = literature (Barefield et al); cited from earlier work
[6] = solubility in water; format: physicochemical; conditions: dimer believed to be the meso 2R,2'S isomer, characterised by the applicant
[7] = tested on: cells; conditions: in words; cited from earlier work
[8] = CC50, HIV-1 (IIIB) part of Table 1, 5 days at 37° C.
[9] = CC50, HIV-2 (ROD) part of Table 1, 5 days at 37° C.
[10] = Human immunodeficiency virus 1, IIIB, MT4, 120 h
[11] = HIV-2 (ROD), MT-4 cells, 5 days at 37° C., read-out: IC50
[12] = Human immunodeficiency virus 1, MT4, 120 h, HIV-1 (IIIB), MT-4 cells, 5 days at 37° C., read-out: IC50

Compound | CC50 at 120 h [1, 8] | CC50 at 120 h [1, 9] | IC50 [2, 10] | logD ([3]; pH 8) | logD ([3]; pH 9) | IC50 [4] | SI (Selectivity Index, ratio of CC50 to IC50) ([2]; HIV-1 (IIIB), MT-4 cells) | SI (Selectivity Index, ratio of CC50 to IC50) ([4]; HIV-2 (ROD), MT-4 cells) | further results
c1cc2nc(c1)CNCCCN(Cc1ccc(CN3CCCNCc4cccc(n4)CNCCC3)cc1)CCCNC2 [Compound A, 7,7'-[1,4-Phenylenebis(methylene)]bis-3,7,11,17-tetraazabicyclo[13.3.1heptadeca-1(17),13,15-trienehexahydrobromide hexahydrate] | > 250 µg/mL | > 250 µg/mL | 0.719 µg/mL | -0.963 | 0.713 | 3.51 µg/mL |  |  | 
c1cc2nc(c1)CCNCCN(Cc1ccc(CN3CCNCCc4cccc(n4)CCNCC3)cc1)CCNCC2 [Compound E, 7,7'-[1,4-Phenylenebis(methylene)]bis-4,7,10,17-tetraazabicyclo-[13.3.1]heptadeca-1(17),13,15-triene octahydrobromide tetrahydrate] | > 250 µg/mL | > 250 µg/mL | 0.0014 µg/mL | -1.44 | 0.479 | 0.001 µg/mL |  |  | logD ([3]; pH 7): -2.4
c1cc2nc(c1)CNCCN(Cc1ccc(CN3CCNCc4cccc(n4)CNCCNCc4cccc(n4)C3)cc1)Cc1cccc(n1)CNCCNC2 [Compound K, 17,17'-[1,4-Phenylene-bis(methylene)]bis-3,6,14,17,23,24-hexaazatricyclo[17.3.1.1^8,12] tetracosa-1(23),8,10,12(24),19,21-hexnene octahydrobromide] | 4.59 µg/mL | 5.89 µg/mL | 4.59 µg/mL | -1.15 | 0.25 | 5.89 µg/mL | < 1 | < 1 | 
C1CNCCNCCCNC(C2CNCCCNCCNCCCN2)CNC1 (stereo not drawn) [2,2'-dimer of cyclam] |  |  |  |  |  |  |  |  | solubility in water [5]: insoluble in water
C1CNCCNCCCN[C@H]([C@H]2CNCCCNCCNCCCN2)CNC1 [meso 2R,2'S isomer] |  |  |  |  |  |  |  |  | solubility in water [6]: soluble
COc1cc2nc(c1)CNCCCN(Cc1ccc(CN3CCCNCc4cc(OC)cc(n4)CNCCC3)cc1)CCCNC2 [Compound C, 7,7'-[1,4-Phenylenebis(methylene)]bis[15-methoxy-3,7,11,17-tetraazabicyclo-[13.3.1]heptadeca-1(17),13,15-triene] hexahydrobromide dihydrate] | 229 µg/mL | > 250 µg/mL | 3.57 µg/mL | -0.959 | -0.0605 | 9.74 µg/mL | 64 |  | 
c1cc(CN2CCCNCCNCCCNCC2)ccc1CN1CCCNCCNCCCNCC1 [Compound L, 1,1'-[1,4-phenylenebis(methylene)]bis-1,4,8,11-tetraazacyclotetra-decane octahydrobromide dihydrate, reference compound] | > 250 µg/mL | > 250 µg/mL |  |  |  |  |  |  | IC50 ([2]; Human immunodeficiency virus 1, IIIB, MT4, 120 h, read-out: IC50): 0.0068 µg/mL; octanol/buffer partition coefficient ([3]; pH 7): 0.0016; octanol/buffer partition coefficient ([3]; pH 8): 0.005; octanol/buffer partition coefficient ([3]; pH 9): 0.16; IC50 [4, 11]: 0.009 µg/mL
c1cc2nc(c1)CNCCN(Cc1ccc(CN3CCNCc4cccc(n4)CNCC3)cc1)CCNC2 [Compound G, 6,6'-[1,4'-Phenylenebis(methylene)]bis-3,6,9,15-tetraazabicyclo[11.3.1]pentadeca-1(15),11,13-triene hexahydromide trihydrate] | 6 µg/mL | 4.71 µg/mL |  |  |  |  |  | 31 | IC50 [2, 12]: 0.62 µg/mL; IC50 [4, 11]: 0.15 µg/mL
c1cc(CN2CCNCc3cccc(n3)CNCC2)cc(CN2CCNCc3cccc(n3)CNCC2)c1 [Compound H, 6,6'-[1,3-Phenylenebis(methylene)]bis-3,6,9,15-tetraazabicyclo[11.3.1]pentadeca-1(15),11,13-triene hexahydrobromide trihydrate] | 32.1 µg/mL | 30.7 µg/mL |  |  |  |  | 309 | 1.12 × 10^4 | IC50 [2, 12]: 0.104 µg/mL; IC50 [4, 11]: 0.0027 µg/mL
Clc1cc2nc(c1)CNCCCN(Cc1ccc(CN3CCCNCc4cc(Cl)cc(n4)CNCCC3)cc1)CCCNC2 [Compound B, 7,7'-[1,4-Phenylenebis(methylene)]bis[15-chloro-3,7,11,17-tetraazabicyclo[13.3.1]heptadeca-1(17),13,15-triene]hexahydrobromide monoacetate] | 12.5 µg/mL |  | 0.89 µg/mL | 0.588 | 1.46 |  | 14 |  | logD ([3]; pH 7): -1
O=c1cc2[nH]c(c1)CNCCCN(Cc1ccc(CN3CCCNCc4cc(=O)cc([nH]4)CNCCC3)cc1)CCCNC2 [Compound D, 7,7'-[1,4-Phenylenebis(methylene)]bis-3,7,11,17-tetraazabicyclo-[13.3.1]-heptadeca-13,16-triene-15-one octahydrobromide] | > 218 µg/mL | > 250 µg/mL | > 218 µg/mL | -1.6 | -0.638 | > 250 µg/mL | < 1 | < 1 | 
c1cc(CN2CCCNCCOCCNCCC2)ccc1CN1CCCNCCOCCNCCC1 [Compound J, 8,8'-[1,4-Phenylenebis(methylene)]bis-1-oxa-4,8,12-triazatetradecane-hexahydro bromide trihydrate] | > 250 µg/mL | > 250 µg/mL | 4.62 µg/mL | -1.92 | -0.131 | 2.15 µg/mL | > 54 | > 116 | logD ([3]; pH 7): -2.52
c1cc2nc(c1)CCNCCCN(Cc1ccc(CN3CCCNCCc4cccc(n4)CCNCCC3)cc1)CCCNCC2 [Compound F, 8,8'-[1,4-Phenylenebis(methylene)]bis-4,8,12,19-tetraazabicyclo[15.3.1]nonadeca-1(19),15,17-triene octahydrobromide heptahydrate] | 199 µg/mL | 171 µg/mL |  |  |  |  | 336 | 102 | IC50 [2, 12]: 0.59 µg/mL; IC50 [4, 11]: 1.68 µg/mL
Cc1cn([C@H]2C[C@H](N=[N+]=[N-])[C@@H](CO)O2)c(=O)[nH]c1=O [AZT] |  |  |  |  |  |  |  |  | toxicity to cells [7]: high toxicity to cells
